# Laboratory results taken from ChEMBL document CHEMBL1201862, “PubChem BioAssay data set” (2004).
# The source made the active and inactive calls.
# Experiments:
# [1] = biological target: Sphingosine 1-phosphate receptor 2 (Homo sapiens, UniProt O95136); test: Dose Response Cell Based Assay for Agonists of the S1P2 Receptor of Purchased Analogues. [Related pubchem assays: 729, 843, 854, 736 ]; format: functional
# [2] = inhibitors of firefly luciferase expression or activity, dose response, H4 neuroglioma cells, luminescence (AID 1990); format: functional, cell-based
# BJ [3] = test: cytotoxicity toward BJ-TERT fibroblasts, dose response, cell-based, RAS-independent, luminescence (AID 1933); format: functional; details: Homo sapiens
# [4] = biological target: Luciferin 4-monooxygenase (Photinus pyralis, UniProt P08659); test: Counter Screen for Luciferase-based Assay Positives. [Related pubchem assays: 620, 618, 411 ]
# [5] = Luminescence Cell-Based Dose Response HTS to Identify Inhibitors of 5'UTR Stem-Loop Driven Prion Protein mRNA Translation in H4 Neuroglioblastoma Cells. [Related pubchem assays: 1827 (Project Summary), 1813 (Primary HTS)]; format: functional
# [6] = inhibitors of SNCA 5'UTR-driven reporter translation, confirmation, H4 neuroglioma cells, luminescence (AID 1988); format: functional, cell-based
# BJ [7] = test: cells; format: functional, cell-based; details: Homo sapiens
# [8] = biological target: Mothers against decapentaplegic homolog 3 (Homo sapiens, UniProt P84022); test: SMAD3 transcription factor inhibitors, dose response (AID 715); format: functional
# HT-1080 = test: cytotoxicity in HT1080 fibrosarcoma cells, cell-based, fluorescence readout (AID 620); format: functional; details: Homo sapiens
# BJ [9] = test: cytotoxicity toward BJ-TERT-LT-ST fibroblasts, dose response, cell-based, RAS-independent, luminescence (AID 1935); format: functional; details: Homo sapiens;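 also: BJ fibroblasts immortalized with TERT plus LT and ST oncogenes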
# [10] = cytotoxicity toward DRD oncogenic fibroblasts, dose response, cell-based, non-viral oncogenic, luminescence (AID 1934); format: functional; details: Homo sapiens
# Hexokinase HKDC1 = biological target: T1, Hexokinase HKDC1 (Homo sapiens, UniProt Q2TB90); test: HKDC1 hexokinase inhibitors, dose response, biochemical, W721R variant (AID 504729); format: functional
# T1 sequence (Q2TB90 whole entry): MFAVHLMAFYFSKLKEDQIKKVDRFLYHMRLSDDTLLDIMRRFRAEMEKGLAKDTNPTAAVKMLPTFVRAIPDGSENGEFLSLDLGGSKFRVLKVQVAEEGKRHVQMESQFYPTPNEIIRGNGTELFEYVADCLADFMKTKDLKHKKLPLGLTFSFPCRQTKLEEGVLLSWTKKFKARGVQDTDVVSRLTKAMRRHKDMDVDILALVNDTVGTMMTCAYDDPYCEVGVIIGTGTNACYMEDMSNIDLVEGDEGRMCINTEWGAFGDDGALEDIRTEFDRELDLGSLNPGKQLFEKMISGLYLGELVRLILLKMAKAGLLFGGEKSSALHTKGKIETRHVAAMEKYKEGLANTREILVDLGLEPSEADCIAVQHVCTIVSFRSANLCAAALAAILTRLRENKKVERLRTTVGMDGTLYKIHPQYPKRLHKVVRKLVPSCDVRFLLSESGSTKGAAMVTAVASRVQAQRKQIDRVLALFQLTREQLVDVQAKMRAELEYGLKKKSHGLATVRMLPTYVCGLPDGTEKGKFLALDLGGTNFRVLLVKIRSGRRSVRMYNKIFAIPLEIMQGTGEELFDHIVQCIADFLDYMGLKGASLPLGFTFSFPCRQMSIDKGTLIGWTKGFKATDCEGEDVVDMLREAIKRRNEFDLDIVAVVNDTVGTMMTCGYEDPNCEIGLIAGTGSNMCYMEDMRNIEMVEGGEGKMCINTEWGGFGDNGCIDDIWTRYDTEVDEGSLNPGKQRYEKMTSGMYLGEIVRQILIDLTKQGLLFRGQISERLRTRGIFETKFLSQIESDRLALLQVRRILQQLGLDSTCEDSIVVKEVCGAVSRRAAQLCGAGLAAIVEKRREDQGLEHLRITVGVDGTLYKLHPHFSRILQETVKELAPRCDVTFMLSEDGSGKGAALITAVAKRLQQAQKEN
# [11] = biological target: T2, Apoptotic protease-activating factor 1 (Homo sapiens, UniProt O14727); format: functional
# T2 sequence (O14727 whole entry): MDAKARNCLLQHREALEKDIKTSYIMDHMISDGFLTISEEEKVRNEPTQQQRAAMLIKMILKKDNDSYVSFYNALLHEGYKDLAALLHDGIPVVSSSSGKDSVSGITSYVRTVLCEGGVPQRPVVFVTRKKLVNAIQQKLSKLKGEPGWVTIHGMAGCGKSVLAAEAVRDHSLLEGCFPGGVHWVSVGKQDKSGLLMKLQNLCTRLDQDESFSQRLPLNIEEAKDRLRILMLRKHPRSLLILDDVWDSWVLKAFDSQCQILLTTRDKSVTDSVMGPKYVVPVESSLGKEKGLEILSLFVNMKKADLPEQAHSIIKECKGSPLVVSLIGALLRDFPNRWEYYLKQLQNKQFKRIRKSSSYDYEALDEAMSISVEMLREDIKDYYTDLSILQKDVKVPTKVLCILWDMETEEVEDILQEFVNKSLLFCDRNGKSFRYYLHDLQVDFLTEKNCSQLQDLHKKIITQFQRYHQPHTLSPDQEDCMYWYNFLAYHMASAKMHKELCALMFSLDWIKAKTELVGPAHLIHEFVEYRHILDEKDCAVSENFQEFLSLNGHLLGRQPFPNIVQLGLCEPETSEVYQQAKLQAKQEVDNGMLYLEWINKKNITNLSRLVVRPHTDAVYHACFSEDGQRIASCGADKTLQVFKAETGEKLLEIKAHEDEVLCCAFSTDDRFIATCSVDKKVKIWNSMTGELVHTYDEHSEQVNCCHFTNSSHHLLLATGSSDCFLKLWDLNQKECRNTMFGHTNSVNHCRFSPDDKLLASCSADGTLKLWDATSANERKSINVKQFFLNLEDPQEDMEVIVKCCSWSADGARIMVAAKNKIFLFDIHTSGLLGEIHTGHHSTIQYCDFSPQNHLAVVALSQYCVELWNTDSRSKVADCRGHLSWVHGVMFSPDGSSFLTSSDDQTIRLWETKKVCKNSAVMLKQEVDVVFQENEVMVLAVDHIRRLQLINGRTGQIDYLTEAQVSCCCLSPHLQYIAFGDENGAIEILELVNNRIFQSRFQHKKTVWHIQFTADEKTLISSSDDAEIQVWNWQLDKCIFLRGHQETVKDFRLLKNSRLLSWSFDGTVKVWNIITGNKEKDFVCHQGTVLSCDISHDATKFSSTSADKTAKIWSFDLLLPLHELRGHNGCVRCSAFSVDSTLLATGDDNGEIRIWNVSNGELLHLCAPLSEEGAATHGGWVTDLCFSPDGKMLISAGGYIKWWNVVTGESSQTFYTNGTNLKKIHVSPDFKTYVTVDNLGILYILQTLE
# [12] = biological target: Mitochondrial peptide methionine sulfoxide reductase (Bos taurus, UniProt P54149); format: functional;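 also: absorbance read-out, biochemical high-throughput dose-response screen for MsrA inhibitors, confirmatory; recombinant bovine MsrA coupled to E. coli TrxB with NADPH and selenocystamine; potency is for inhibitors of MsrA activity on DMSO substrate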
# [13] = Artemis endonuclease inhibitor potency, dose response, biochemical, fluorescence intensity (AID 720701); format: functional;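 also: Artemis endonuclease enzyme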
# [14] = biological target: Tyrosyl-DNA phosphodiesterase 2 (Homo sapiens, UniProt O95551); test: human TDP2 enzyme inhibitors, dose response, biochemical, epi absorbance, IC50 (AID 743297)
# Estrogen receptor = biological target: T3, Estrogen receptor (Homo sapiens, UniProt P03372); test: potentiators of ERα–SRC-1 coactivator binding, dose response, biochemical, TR-FRET, ERα LBD (AID 737)
# T3 sequence (P03372 whole entry): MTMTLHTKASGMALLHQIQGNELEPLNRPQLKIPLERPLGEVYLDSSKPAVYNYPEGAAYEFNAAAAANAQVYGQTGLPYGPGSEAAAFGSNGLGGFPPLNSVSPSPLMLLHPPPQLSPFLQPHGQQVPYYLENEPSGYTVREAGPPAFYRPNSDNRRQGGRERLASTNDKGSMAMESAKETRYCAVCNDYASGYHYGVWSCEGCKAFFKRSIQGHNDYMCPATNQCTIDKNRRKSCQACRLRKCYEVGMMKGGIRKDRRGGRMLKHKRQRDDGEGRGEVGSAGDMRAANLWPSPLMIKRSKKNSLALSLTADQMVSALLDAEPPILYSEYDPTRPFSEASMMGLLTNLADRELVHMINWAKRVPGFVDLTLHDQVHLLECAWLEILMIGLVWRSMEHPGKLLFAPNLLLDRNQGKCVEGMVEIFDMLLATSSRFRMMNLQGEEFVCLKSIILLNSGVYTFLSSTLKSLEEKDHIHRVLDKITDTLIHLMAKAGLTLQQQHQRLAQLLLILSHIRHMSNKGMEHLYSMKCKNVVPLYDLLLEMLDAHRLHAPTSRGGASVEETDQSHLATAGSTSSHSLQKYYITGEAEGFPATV
# [15] = biological target: DNA (cytosine-5)-methyltransferase 1 (Homo sapiens, UniProt P26358); test: DNMT1 methyltransferase inhibitors, confirmation, biochemical, fluorescent molecular beacon (AID 602386); format: functional
# [16] = biological target: Peroxisome proliferator-activated receptor gamma/Nuclear receptor coactivator 2 (Homo sapiens, UniProt P37231); format: functional;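 also: agonist potency for raising coactivator recruitment to the receptor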
# [17] = biological target: Peroxisome proliferator-activated receptor gamma/Nuclear receptor coactivator 1 (Homo sapiens, UniProt P37231); format: functional;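 also: agonist potency as compounds enhance coactivator SRC-1 recruitment to PPARgamma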
# [18] = biological target: Peroxisome proliferator-activated receptor gamma/Nuclear receptor coactivator 3 (Homo sapiens, UniProt P37231); format: functional;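 also: agonist potency for raising coactivator recruitment to the receptor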
# [19] = HIV-1 Env-mediated cell fusion inhibitors, dose response, CCR5-tropic Env (AID 2279); format: functional
# [20] = biological target: T4, High affinity choline transporter 1 (Homo sapiens, UniProt Q9GZV3); test: CHT inhibitors, dose response, cell-based, 5-point CRC, membrane potential dye (AID 504840); format: functional
# T4 sequence (Q9GZV3 whole entry): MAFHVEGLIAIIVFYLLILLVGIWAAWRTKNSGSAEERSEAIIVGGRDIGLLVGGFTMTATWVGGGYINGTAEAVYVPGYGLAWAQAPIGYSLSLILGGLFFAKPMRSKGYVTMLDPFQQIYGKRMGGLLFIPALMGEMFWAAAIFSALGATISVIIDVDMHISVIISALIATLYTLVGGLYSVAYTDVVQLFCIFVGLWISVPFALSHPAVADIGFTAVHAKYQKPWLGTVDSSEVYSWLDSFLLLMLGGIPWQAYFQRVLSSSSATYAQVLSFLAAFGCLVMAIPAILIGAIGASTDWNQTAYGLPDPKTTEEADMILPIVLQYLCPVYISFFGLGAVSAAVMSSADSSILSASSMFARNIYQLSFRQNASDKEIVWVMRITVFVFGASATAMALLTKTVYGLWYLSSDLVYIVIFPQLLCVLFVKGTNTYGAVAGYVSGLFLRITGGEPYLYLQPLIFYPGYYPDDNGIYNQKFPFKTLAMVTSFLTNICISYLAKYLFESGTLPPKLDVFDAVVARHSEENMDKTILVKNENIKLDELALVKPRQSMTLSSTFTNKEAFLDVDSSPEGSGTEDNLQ
# [21] = biological target: T4, High affinity choline transporter 1; test: CHT inhibitors, dose response, cell-based, 10-point CRC, membrane potential dye (AID 588401); format: functional;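 also: membrane potential dye fluorescence of choline-evoked depolarization via CHT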
# NS3 = NS3 (Hepatitis C virus, UniProt A3EZJ3); test: PubChem AID 2173; set-up: species or system Hepacivirus hominis
# [22] = enhancers of respiration in Yfh1-depleted yeast, dose response, Friedreich's ataxia, plus single-dose screen (AID 1465); format: functional;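 also: yeast depleted of Yfh1p frataxin homolog grown on glycerol needing respiration; WST-1 tetrazolium dye reduction as measure of cellular dehydrogenase metabolic activity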
# [23] = biological target: Induced myeloid leukemia cell differentiation protein Mcl-1 (Homo sapiens, UniProt Q07820); format: functional
# [24] = biological target: T5, Mannose-6-phosphate isomerase (Homo sapiens, UniProt P34949); test: human PMI inhibitors, high substrate, primary screen, biochemical, fluorescence intensity, high mannose 6-phosphate (AID 1220)
# T5 sequence (P34949 whole entry): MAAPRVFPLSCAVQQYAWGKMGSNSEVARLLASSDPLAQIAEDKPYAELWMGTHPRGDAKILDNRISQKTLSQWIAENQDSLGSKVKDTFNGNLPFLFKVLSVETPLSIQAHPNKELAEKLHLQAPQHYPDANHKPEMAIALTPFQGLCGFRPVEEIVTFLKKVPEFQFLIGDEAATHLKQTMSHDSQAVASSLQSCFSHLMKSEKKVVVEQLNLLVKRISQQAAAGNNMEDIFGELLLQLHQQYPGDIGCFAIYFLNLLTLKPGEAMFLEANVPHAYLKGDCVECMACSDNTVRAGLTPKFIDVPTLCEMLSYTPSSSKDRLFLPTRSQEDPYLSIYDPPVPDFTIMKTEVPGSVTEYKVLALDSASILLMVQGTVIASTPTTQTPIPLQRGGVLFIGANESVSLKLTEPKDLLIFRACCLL
# [25] = THP-1 cell cytotoxicity, dose response, cytotoxicity control for Vif-APOBEC3G degradation inhibitor project, THP-1 cells (AID 1117359); format: functional; details: Human immunodeficiency virus 1, THP-1
# Sequence of Sphingosine 1-phosphate receptor 2 (O95136 whole entry): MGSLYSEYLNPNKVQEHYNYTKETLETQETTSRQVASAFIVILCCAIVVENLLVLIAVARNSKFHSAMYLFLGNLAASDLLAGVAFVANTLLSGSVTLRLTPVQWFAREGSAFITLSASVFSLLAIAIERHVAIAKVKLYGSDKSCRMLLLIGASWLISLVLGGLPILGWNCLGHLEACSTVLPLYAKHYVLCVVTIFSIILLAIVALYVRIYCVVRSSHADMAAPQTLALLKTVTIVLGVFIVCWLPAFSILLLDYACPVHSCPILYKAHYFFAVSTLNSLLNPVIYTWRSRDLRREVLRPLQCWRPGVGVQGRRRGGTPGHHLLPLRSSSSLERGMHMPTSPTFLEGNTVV
# Sequence of Mitochondrial peptide methionine sulfoxide reductase (P54149 whole entry): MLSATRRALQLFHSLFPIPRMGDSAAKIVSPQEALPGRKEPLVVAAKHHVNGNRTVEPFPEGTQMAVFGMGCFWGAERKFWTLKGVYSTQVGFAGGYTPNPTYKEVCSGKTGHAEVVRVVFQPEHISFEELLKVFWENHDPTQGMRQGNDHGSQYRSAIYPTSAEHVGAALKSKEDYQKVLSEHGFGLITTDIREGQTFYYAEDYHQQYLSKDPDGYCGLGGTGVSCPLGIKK
# Sequence of Peroxisome proliferator-activated receptor gamma/Nuclear receptor coactivator 2 (P37231 whole entry): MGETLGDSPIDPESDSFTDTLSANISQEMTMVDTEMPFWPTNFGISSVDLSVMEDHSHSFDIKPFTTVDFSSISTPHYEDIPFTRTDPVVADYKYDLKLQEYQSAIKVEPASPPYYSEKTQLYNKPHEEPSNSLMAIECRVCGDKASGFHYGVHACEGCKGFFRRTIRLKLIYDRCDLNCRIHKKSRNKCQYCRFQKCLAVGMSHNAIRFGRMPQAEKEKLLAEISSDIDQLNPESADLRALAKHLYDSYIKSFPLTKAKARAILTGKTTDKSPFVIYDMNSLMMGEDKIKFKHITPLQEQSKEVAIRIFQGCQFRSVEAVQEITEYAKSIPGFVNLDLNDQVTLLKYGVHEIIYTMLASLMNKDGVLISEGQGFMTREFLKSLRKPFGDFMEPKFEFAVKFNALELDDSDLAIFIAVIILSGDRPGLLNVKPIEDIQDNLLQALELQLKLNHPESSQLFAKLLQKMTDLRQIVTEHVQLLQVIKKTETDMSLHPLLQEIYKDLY
# Sequence of Peroxisome proliferator-activated receptor gamma/Nuclear receptor coactivator 2 (Q15596 whole entry, further chain): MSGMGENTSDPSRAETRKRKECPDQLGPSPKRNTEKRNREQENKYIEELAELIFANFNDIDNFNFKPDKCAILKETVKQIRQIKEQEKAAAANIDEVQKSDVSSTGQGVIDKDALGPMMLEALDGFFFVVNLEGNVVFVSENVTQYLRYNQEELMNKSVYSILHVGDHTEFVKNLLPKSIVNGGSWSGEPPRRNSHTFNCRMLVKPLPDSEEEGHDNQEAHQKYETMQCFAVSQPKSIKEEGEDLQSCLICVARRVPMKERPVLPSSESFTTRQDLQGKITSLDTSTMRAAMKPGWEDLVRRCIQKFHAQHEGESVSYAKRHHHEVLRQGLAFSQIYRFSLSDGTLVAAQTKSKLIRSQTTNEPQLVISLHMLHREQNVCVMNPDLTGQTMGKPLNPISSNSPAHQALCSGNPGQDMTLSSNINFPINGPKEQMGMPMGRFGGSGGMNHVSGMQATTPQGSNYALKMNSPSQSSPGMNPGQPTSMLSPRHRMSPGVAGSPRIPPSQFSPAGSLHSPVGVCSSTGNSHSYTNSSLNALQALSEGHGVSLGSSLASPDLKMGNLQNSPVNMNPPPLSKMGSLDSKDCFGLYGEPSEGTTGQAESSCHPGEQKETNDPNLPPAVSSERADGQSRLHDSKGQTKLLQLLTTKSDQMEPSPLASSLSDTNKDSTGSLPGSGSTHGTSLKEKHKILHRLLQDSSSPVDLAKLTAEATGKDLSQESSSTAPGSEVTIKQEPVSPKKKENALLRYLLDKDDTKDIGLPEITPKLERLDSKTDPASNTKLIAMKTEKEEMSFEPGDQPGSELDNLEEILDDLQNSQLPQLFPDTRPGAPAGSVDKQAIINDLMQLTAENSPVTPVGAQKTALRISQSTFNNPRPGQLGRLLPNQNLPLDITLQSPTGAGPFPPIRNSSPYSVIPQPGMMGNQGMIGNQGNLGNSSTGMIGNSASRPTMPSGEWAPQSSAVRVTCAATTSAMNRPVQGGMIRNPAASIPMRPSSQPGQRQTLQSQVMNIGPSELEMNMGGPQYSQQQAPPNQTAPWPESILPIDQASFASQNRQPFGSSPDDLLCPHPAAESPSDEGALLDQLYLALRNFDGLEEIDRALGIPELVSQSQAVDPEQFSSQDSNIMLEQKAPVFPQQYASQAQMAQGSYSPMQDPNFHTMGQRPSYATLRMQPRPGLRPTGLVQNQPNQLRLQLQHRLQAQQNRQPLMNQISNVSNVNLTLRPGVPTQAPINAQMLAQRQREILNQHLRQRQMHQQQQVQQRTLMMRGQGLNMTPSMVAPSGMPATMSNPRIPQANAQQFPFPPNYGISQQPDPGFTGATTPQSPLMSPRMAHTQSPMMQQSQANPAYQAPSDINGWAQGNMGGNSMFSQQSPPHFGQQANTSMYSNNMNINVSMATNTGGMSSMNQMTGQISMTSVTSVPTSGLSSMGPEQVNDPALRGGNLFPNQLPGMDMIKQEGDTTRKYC
# Sequence of Peroxisome proliferator-activated receptor gamma/Nuclear receptor coactivator 3 (P37231 whole entry, the tested form may be a part): as the sequence (P37231 whole entry) above
# Sequence of Peroxisome proliferator-activated receptor gamma/Nuclear receptor coactivator 3 (Q9Y6Q9 whole entry, further chain, the tested form may be a part): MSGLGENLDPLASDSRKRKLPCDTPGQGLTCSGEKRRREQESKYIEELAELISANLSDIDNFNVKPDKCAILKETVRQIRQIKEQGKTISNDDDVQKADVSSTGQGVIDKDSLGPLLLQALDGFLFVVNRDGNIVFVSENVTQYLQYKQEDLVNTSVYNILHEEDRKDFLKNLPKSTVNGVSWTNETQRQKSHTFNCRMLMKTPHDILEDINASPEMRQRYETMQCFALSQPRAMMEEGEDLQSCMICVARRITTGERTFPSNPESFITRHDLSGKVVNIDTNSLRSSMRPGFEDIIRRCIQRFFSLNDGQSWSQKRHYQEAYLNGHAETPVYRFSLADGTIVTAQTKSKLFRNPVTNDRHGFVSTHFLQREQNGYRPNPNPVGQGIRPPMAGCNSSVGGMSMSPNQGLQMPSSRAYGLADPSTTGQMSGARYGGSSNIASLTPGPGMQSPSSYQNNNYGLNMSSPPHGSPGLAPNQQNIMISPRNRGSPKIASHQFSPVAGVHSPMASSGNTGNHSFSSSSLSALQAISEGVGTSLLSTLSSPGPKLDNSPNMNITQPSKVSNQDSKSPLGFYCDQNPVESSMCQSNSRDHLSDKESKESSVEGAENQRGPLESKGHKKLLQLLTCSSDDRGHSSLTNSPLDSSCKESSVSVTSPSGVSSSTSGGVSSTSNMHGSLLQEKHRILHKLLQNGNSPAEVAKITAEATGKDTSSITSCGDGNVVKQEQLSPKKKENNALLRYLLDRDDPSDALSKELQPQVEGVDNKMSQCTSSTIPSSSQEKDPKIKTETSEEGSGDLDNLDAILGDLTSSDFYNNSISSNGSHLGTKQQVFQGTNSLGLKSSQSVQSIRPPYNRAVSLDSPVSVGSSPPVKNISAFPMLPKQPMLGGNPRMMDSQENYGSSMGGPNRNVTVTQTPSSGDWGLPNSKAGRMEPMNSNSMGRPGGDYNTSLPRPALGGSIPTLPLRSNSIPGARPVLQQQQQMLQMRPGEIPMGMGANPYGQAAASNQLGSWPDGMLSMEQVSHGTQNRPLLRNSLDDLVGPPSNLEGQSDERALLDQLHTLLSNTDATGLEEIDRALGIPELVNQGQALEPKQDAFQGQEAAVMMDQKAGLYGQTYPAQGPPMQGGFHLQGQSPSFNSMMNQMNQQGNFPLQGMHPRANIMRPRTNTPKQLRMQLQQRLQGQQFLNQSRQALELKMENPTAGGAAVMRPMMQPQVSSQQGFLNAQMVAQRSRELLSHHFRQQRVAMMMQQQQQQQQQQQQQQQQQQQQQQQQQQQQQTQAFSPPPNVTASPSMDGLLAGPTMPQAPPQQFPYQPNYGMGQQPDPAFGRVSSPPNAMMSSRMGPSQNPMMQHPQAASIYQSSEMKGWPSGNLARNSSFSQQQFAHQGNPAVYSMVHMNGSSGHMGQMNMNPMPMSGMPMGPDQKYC
# Sequence of Luciferin 4-monooxygenase (P08659 whole entry): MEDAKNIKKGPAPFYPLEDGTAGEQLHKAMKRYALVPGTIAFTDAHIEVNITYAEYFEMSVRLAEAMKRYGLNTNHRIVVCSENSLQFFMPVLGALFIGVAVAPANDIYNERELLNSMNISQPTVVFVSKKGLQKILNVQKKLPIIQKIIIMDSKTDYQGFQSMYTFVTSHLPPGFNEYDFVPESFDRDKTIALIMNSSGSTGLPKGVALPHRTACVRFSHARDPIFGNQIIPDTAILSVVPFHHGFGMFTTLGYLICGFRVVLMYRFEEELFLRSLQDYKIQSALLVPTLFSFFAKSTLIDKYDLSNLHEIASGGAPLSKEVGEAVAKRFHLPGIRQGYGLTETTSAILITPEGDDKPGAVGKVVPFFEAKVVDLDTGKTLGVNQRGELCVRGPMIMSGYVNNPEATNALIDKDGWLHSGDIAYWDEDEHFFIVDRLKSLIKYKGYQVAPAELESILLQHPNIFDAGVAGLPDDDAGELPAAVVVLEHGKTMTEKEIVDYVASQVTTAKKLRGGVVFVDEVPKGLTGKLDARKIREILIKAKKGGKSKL
structure (smiles),measurement,setting,value
Cc1cc(C(=O)Cn2cnc3c(oc4ccccc43)c2=O)c(C)n1Cc1ccccc1,EC50,[1],> 30 µM (not active)
O=C1C(N2CCOCC2)=C(n2nnc3ccccc32)C(=O)c2ccccc21,EC50,[2],> 120 µM (not active)
same,EC50,BJ [3],8.79 µM (active)
same,EC50,[4],1.63 µM (active)
same,EC50,[5],8.93 µM (active)
same,EC50,[6],> 120 µM (not active)
same,EC50,BJ [7],5.06 µM (active)
same,IC50,[8],22 µM (active)
same,EC50,HT-1080,12.3 µM (active)
same,EC50,BJ [9],> 150 µM (inconclusive)
same,EC50,[10],10.5 µM (active)
same,IC50,Hexokinase HKDC1,7.01 µM (active)
same,IC50,[11],4.02 µM (active)
same,IC50,[12],9.33 µM (active)
same,IC50,[13],7.75 µM (active)
same,IC50,[14],10 µM (inactive)
O=C(CSc1nc2c(cnn2-c2ccccc2)c(=O)[nH]1)c1ccc(Cl)cc1,EC50,Estrogen receptor,9.92 µM (active)
same,IC50,[15],9.12 µM (active)
O=C(NC(=S)Nc1ccccc1)c1ccc(Br)o1,EC50,[16],16 µM (not active)
same,EC50,[17],17.6 µM (not active)
same,EC50,[18],19.9 µM (not active)
CCS(=O)(=O)C1=NSC2=NC(=O)/C(=C\c3ccc(OS(=O)(=O)c4ccccc4)cc3)C(=N)N21,IC50,[19],36.5 µM (active)
same,IC50,[20],5.22 µM (active)
same,IC50,[21],8.91 µM (active)
CCN(CC)S(=O)(=O)c1cccc(C(=O)N/N=C/c2ccc(O)c(O)c2O)c1,IC50,NS3,5.31 µM (active)
same,EC50,[22],> 100 µM (active)
same,IC50,[23],7.33 µM (active)
same,IC50,[24],5.36 µM (active)
same,CC50,[25],> 40 µM (active)
